Assay: Stability of cannabinoid entourage and Vitamin E components of the powder concentrate by LCMSMS
Format: physicochemical
Conditions: powder stored at 21-25° C.
Experimental: At each time period, 0.05 g of powder was dissolved in 10 ml-15 of ethanol, diluted to fall within the analytical range, and injected into the LCMSMS for analysis.

| SMILES | Stability of Plant-Derived Cannabinoid Compounds in Powder Concentrate (0 days) | Stability of Plant-Derived Cannabinoid Compounds in Powder Concentrate (1 days) | Stability of Plant-Derived Cannabinoid Compounds in Powder Concentrate (2 days) | Stability of Plant-Derived Cannabinoid Compounds in Powder Concentrate (3 days) | Stability of Plant-Derived Cannabinoid Compounds in Powder Concentrate (5 days) | Stability of Plant-Derived Cannabinoid Compounds in Powder Concentrate (8 days) | Stability of Plant-Derived Cannabinoid Compounds in Powder Concentrate (9 days) | Stability of Plant-Derived Cannabinoid Compounds in Powder Concentrate (10 days) | Stability of Plant-Derived Cannabinoid Compounds in Powder Concentrate (11 days) | Stability of Plant-Derived Cannabinoid Compounds in Powder Concentrate (12 days) | Stability of Plant-Derived Cannabinoid Compounds in Powder Concentrate (15 days) | Stability of Plant-Derived Cannabinoid Compounds in Powder Concentrate (16 days) | Stability of Plant-Derived Cannabinoid Compounds in Powder Concentrate (17 days) | Stability of Plant-Derived Cannabinoid Compounds in Powder Concentrate (18 days) | Stability of Plant-Derived Cannabinoid Compounds in Powder Concentrate (19 days) | Stability of Plant-Derived Cannabinoid Compounds in Powder Concentrate (22 days) | Stability of Plant-Derived Cannabinoid Compounds in Powder Concentrate (23 days) | Stability of Plant-Derived Cannabinoid Compounds in Powder Concentrate (24 days) | Stability of Plant-Derived Cannabinoid Compounds in Powder Concentrate (25 days) | Stability of Plant-Derived Cannabinoid Compounds in Powder Concentrate (26 days) | further results |
| --- | --- | --- | --- | --- | --- | --- | --- | --- | --- | --- | --- | --- | --- | --- | --- | --- | --- | --- | --- | --- | --- |
| C=C(C)[C@@H]1CCC(C)=C[C@H]1c1c(O)cc(CCC)cc1O [CBDV, cannabidivarin] | 0.050 mg/g powder | 0.051 mg/g powder | 0.051 mg/g powder | 0.048 mg/g powder | 0.050 mg/g powder | 0.051 mg/g powder | 0.049 mg/g powder | 0.050 mg/g powder | 0.051 mg/g powder | 0.051 mg/g powder | 0.050 mg/g powder | 0.049 mg/g powder | 0.051 mg/g powder | 0.051 mg/g powder | 0.048 mg/g powder | 0.049 mg/g powder | 0.050 mg/g powder | 0.051 mg/g powder | 0.052 mg/g powder | 0.050 mg/g powder | Stability of Plant-Derived Cannabinoid Compounds in Powder Concentrate (29 days): 0.049 mg/g powder; Stability of Plant-Derived Cannabinoid Compounds in Powder Concentrate (30 days): 0.051 mg/g powder; Stability of Plant-Derived Cannabinoid Compounds in Powder Concentrate (60 days): 0.050 mg/g powder; Stability of Plant-Derived Cannabinoid Compounds in Powder Concentrate (90 days): 0.050 mg/g powder; Stability of Plant-Derived Cannabinoid Compounds in Powder Concentrate (120 days): 0.050 mg/g powder; Stability of Plant-Derived Cannabinoid Compounds in Powder Concentrate (150 days): 0.051 mg/g powder; Stability of Plant-Derived Cannabinoid Compounds in Powder Concentrate (180 days): 0.050 mg/g powder; Stability of Plant-Derived Cannabinoid Compounds in Powder Concentrate (210 days): 0.049 mg/g powder; Stability of Plant-Derived Cannabinoid Compounds in Powder Concentrate (240 days): 0.052 mg/g powder; Stability of Plant-Derived Cannabinoid Compounds in Powder Concentrate (270 days): 0.051 mg/g powder; Stability of Plant-Derived Cannabinoid Compounds in Powder Concentrate (300 days): 0.049 mg/g powder; Stability of Plant-Derived Cannabinoid Compounds in Powder Concentrate (330 days): 0.052 mg/g powder; Stability of Plant-Derived Cannabinoid Compounds in Powder Concentrate (360 days): 0.050 mg/g powder; Stability of Plant-Derived Cannabinoid Compounds in Powder Concentrate (390 days): 0.049 mg/g powder; Stability of Plant-Derived Cannabinoid Compounds in Powder Concentrate (420 days): 0.051 mg/g powder; Stability of Plant-Derived Cannabinoid Compounds in Powder Concentrate (450 days): 0.049 mg/g powder; Stability of Plant-Derived Cannabinoid Compounds in Powder Concentrate (480 days): 0.051 mg/g powder; Stability of Plant-Derived Cannabinoid Compounds in Powder Concentrate (510 days): 0.049 mg/g powder; Stability of Plant-Derived Cannabinoid Compounds in Powder Concentrate (540 days): 0.052 mg/g powder; Stability of Plant-Derived Cannabinoid Compounds in Powder Concentrate (570 days): 0.048 mg/g powder |
| CCCCCc1cc2c(c(O)c1C(=O)O)[C@@H]1C=C(C)CC[C@H]1C(C)(C)O2 [D9 THCA, delta-9-tetrahydrocannabinolic acid] | 0.150 mg/g powder | 0.150 mg/g powder | 0.147 mg/g powder | 0.150 mg/g powder | 0.146 mg/g powder | 0.156 mg/g powder | 0.151 mg/g powder | 0.148 mg/g powder | 0.145 mg/g powder | 0.152 mg/g powder | 0.151 mg/g powder | 0.157 mg/g powder | 0.156 mg/g powder | 0.149 mg/g powder | 0.146 mg/g powder | 0.150 mg/g powder | 0.147 mg/g powder | 0.150 mg/g powder | 0.150 mg/g powder | 0.150 mg/g powder | Stability of Plant-Derived Cannabinoid Compounds in Powder Concentrate (29 days): 0.152 mg/g powder; Stability of Plant-Derived Cannabinoid Compounds in Powder Concentrate (30 days): 0.151 mg/g powder; Stability of Plant-Derived Cannabinoid Compounds in Powder Concentrate (60 days): 0.146 mg/g powder; Stability of Plant-Derived Cannabinoid Compounds in Powder Concentrate (90 days): 0.147 mg/g powder; Stability of Plant-Derived Cannabinoid Compounds in Powder Concentrate (120 days): 0.147 mg/g powder; Stability of Plant-Derived Cannabinoid Compounds in Powder Concentrate (150 days): 0.153 mg/g powder; Stability of Plant-Derived Cannabinoid Compounds in Powder Concentrate (180 days): 0.154 mg/g powder; Stability of Plant-Derived Cannabinoid Compounds in Powder Concentrate (210 days): 0.151 mg/g powder; Stability of Plant-Derived Cannabinoid Compounds in Powder Concentrate (240 days): 0.148 mg/g powder; Stability of Plant-Derived Cannabinoid Compounds in Powder Concentrate (270 days): 0.148 mg/g powder; Stability of Plant-Derived Cannabinoid Compounds in Powder Concentrate (300 days): 0.156 mg/g powder; Stability of Plant-Derived Cannabinoid Compounds in Powder Concentrate (330 days): 0.156 mg/g powder; Stability of Plant-Derived Cannabinoid Compounds in Powder Concentrate (360 days): 0.155 mg/g powder; Stability of Plant-Derived Cannabinoid Compounds in Powder Concentrate (390 days): 0.153 mg/g powder; Stability of Plant-Derived Cannabinoid Compounds in Powder Concentrate (420 days): 0.154 mg/g powder; Stability of Plant-Derived Cannabinoid Compounds in Powder Concentrate (450 days): 0.155 mg/g powder; Stability of Plant-Derived Cannabinoid Compounds in Powder Concentrate (480 days): 0.149 mg/g powder; Stability of Plant-Derived Cannabinoid Compounds in Powder Concentrate (510 days): 0.154 mg/g powder; Stability of Plant-Derived Cannabinoid Compounds in Powder Concentrate (540 days): 0.154 mg/g powder; Stability of Plant-Derived Cannabinoid Compounds in Powder Concentrate (570 days): 0.148 mg/g powder |

From patent US20260130395A1, “Water Dispersible Botanical Compositions” (Aquila Black Limited, priority 2021, published 2026)
